Source: patent US20260102359A1, “COMBINATION TREATMENT OF DERMAL AND TRANSDERMAL FIBROTIC DISEASES, DISORDERS AND ASSOCIATED PAIN AND INFLAMMATION” (ERESINA, LLC, priority 2022, published 2026)
Structures can show the parent of a compound that is named as a salt.

test system: hDMFa myofibroblast cells

Compound | Compound Myofibroblast Cytotoxicity Activity
O=C(O)c1ccc(O)cc1 [Cmpd 61] | ++++
CCC(=O)c1c(O)cc(O)cc1O [Cmpd 458, Flopropione] | ++
Nc1ccc(C(=O)O)c(O)c1 [Cmpd 59, 4-Aminosalicylic acid] | ++
CCN(CC)CC#CCOC(=O)C(O)(c1ccccc1)C1CCCCC1 (stereo not drawn) [Cmpd 747, Oxybutynin] | ++
CC1=CCC(O)(C(C)C)CC1 (stereo not drawn) [Cmpd 931, Terpinen-4-ol] | ++
C[n+]1cc2c3c(ccc2c2ccc4cc5c(cc4c21)OCO5)OCO3 [Cmpd 850, Sanguinarine] | +++++
C=C1C(=O)O[C@@H]2C[C@@]3(C)CCC[C@H](C)C3=C[C@H]12 [Cmpd 97, Alantolactone] | ++++
C/C=C/c1ccc(OC)cc1 [Cmpd 963, Trans-Anethole] | ++
O=c1[nH]c(=O)n([C@H]2C[C@H](O)[C@@H](CO)O2)cc1F [Cmpd 459, Floxuridine] | +++
Oc1cccc2cccnc12 [Cmpd 74, 8-Hydroxyquinoline] | ++
Cc1coc2c1C(=O)C(=O)c1c-2ccc2c1CCCC2(C)C [Cmpd 913, Tanshinone IIA] | +++++
O=C(O)CC(O)(CC(=O)O)C(=O)O [Cmpd 273, Citric acid] | ++++
Cc1cncc(CN2CCC(=C3c4ccc(Cl)cc4CCc4cccnc43)CC2)c1.O=C(O)/C=C/C(=O)O [Cmpd 844, Rupatadine Fumarate] | +++
CC1=CC[C@H]2C[C@@H]1C2(C)C [Cmpd 21, (1S)-(-)-α-Pinene] | ++
Clc1ccc(C(Cn2ccnc2)OCc2ccc(Sc3ccccc3)cc2)c(Cl)c1 (stereo not drawn) [Cmpd 452, Fenticonazole Nitrate] | ++++
CC(C)(C)NC(=O)[C@@H]1C[C@@H]2CCCC[C@@H]2CN1C[C@@H](O)[C@H](Cc1ccccc1)NC(=O)[C@H](CC(N)=O)NC(=O)c1ccc2ccccc2n1 [Cmpd 852, Saquinavir mesylate] | ++++
O=Cc1ccc(CO)o1 [Cmpd 66] | ++
CCOC(=O)C1=C(C)NC(C)=C(C(=O)OC)C1c1cccc(Cl)c1Cl (stereo not drawn) [Cmpd 449, Felodipine] | +++
OCCN1CCN(CCCN2c3ccccc3Sc3ccc(Cl)cc32)CC1 [Cmpd 773, Perphenazine] | +++++
COC(=O)Nc1nc2ccc(C(=O)c3ccccc3)cc2[nH]1 [Cmpd 637, Mebendazole] | ++++
CC(=O)OCC[N+](C)(C)C.[I-] [Cmpd 83, Acetylcholine iodide] | ++
COc1ccc(C(CN(C)C)C2(O)CCCCC2)cc1 (stereo not drawn) [Cmpd 998, Venlafaxine] | ++

Compound | Compound Myofibroblast Cytotoxicity Activity
Nc1cc[nH]c(=O)n1 [Cmpd 304, Cytosine] | ++
CCOC(=O)C=Cc1ccccc1 [Cmpd 437, Ethyl Cinnamate] | ++
CC[C@H]1OC(=O)[C@H](C)[C@@H](O[C@H]2C[C@@](C)(OC)[C@@H](O)[C@H](C)O2)[C@H](C)[C@@H](O[C@@H]2O[C@H](C)C[C@H](N(C)C)[C@H]2O)[C@](C)(OC)C[C@@H](C)C(=O)[C@H](C)[C@@H](O)[C@]1(C)O [Cmpd 274, Clarithromycin] | +++
Oc1c(Cl)cc(Cl)c2cccnc12 [Cmpd 251, Chloroxine] | ++++
C/C=C1\NC(=O)[C@H]2CSSCC/C=C/[C@H](CC(=O)N[C@H](C(C)C)C(=O)N2)OC(=O)[C@H](C(C)C)NC1=O [Cmpd 839, Romidepsin (FK228,depsipeptide)] | ++
CCCCCCCC(=O)O [Cmpd 729, Octanoic acid] | ++
CN(C/C=C/C#CC(C)(C)C)Cc1cccc2ccccc12 [Cmpd 927, Terbinafine HCl] | ++++
COc1cc2c(Oc3ccc4[nH]c(C)cc4c3F)ncnc2cc1OCCCN1CCCC1 [Cmpd 226, Cediranib (AZD217)] | ++++
Cc1c(C(=O)Nc2ccc(N3C[C@@H](C)O[C@@H](C)C3)nc2)cccc1-c1ccc(OC(F)(F)F)cc1.O=P(O)(O)O.O=P(O)(O)O [Cmpd 572, LDE225 Diphosphate] | ++
Cc1c(Cl)cccc1Nc1ccccc1C(=O)O [Cmpd 955, Tolfenamic Acid] | ++
Cc1cc(C2CCCCC2)n(O)c(=O)c1 [Cmpd 258, Ciclopirox] | ++++
O=c1ccc2[n+]([O-])c3ccc(O)cc3oc-2c1 [Cmpd 827, Resazurin sodium salt] | ++
CC[C@@H]1/C=C(\C)C[C@H](C)C[C@H](OC)[C@H]2O[C@@](O)(C(=O)C(=O)N3CCCC[C@H]3C(=O)O[C@H](/C(C)=C/[C@@H]3CC[C@@H](O)[C@H](OC)C3)[C@H](C)[C@@H](O)CC1=O)[C@H](C)C[C@@H]2OC [Cmpd 133, Ascomycin(FK 520)] | +++
CC(C)(CO)[C@@H](O)C(=O)NCCC(=O)[O-].[Na+] [Cmpd 391, D-Pantothenate sodium] | ++
Lecithin, Soybean [Cmpd 577] | +
CCCCOc1ccc(C(=O)CCN2CCCCC2)cc1 [Cmpd 398, Dyclonine HCl] | +++
Nc1c2c(nc3ccccc13)CCCC2 [Cmpd 906, Tacrine hydrochloride] | ++++
Clc1ccccc1C(c1ccccc1)(c1ccccc1)n1ccnc1 [Cmpd 289, Clotrimazole] | +++
C[N+](C)(C)CCO.O=C([O-])C(O)C(O)C(=O)O (stereo not drawn) [Cmpd 257, Choline bitartrate] | +++
O=P1(NCCCl)OCCCN1CCCl (stereo not drawn) [Cmpd 518, Ifosfamide] | +++
CNCCCN1c2ccccc2CCc2ccccc21.Cl [Cmpd 342, Desipramine hydrochloride] | ++++
CNC1(C)C2CCC(C2)C1(C)C.Cl (stereo not drawn) [Cmpd 639, Mecamylamine hydrochloride] | ++++

Compound | Compound Myofibroblast Cytotoxicity Activity
CC(Cc1ccc(O)c(O)c1)C(C)Cc1ccc(O)c(O)c1 (stereo not drawn) [Cmpd 722, Nordihydroguaiaretic acid] | +++
O=C([O-])[O-].[Li+].[Li+] [Cmpd 595, Lithium carbonate] | ++++
COc1ccc2cc1Oc1ccc(cc1)C[C@H]1c3c(cc4c(c3Oc3cc5c(cc3OC)CCN(C)[C@@H]5C2)OCO4)CCN1C [Cmpd 241, Cepharanthine] | ++
Oc1c(Br)cc(Br)c2cccnc12 [Cmpd 194, Broxyquinoline] | +++
CC(=O)CCCCn1c(=O)c2c(ncn2C)n(C)c1=O [Cmpd 769, Pentoxifylline] | ++++
Cc1ccc(-n2nc(C(C)(C)C)cc2NC(=O)Nc2ccc(OCCN3CCOCC3)c3ccccc23)cc1 [Cmpd 183, BIRB 796 (Doramapimod)] | ++
COc1cc(Nc2ncc3c(n2)-c2ccc(Cl)cc2C(c2c(F)cccc2OC)=NC3)ccc1C(=O)O [Cmpd 685, MLN8237 (Alisertib)] | ++++
C#C[C@]1(OC(C)=O)CC[C@H]2[C@@H]3CCC4=C[C@@H](OC(C)=O)CC[C@@H]4[C@H]3CC[C@@]21C [Cmpd 439, Ethynodiol diacetate] | ++
CO/N=C(\C(=O)N[C@@H]1C(=O)N2C(C(=O)OCOC(=O)C(C)(C)C)=C(C)CS[C@H]12)c1csc(N)n1.Cl [Cmpd 230, Cefetamet pivoxil hydrochloride] | +++++
CC(C)(C)NCC(O)c1ccc(O)c(CO)c1 (stereo not drawn) [Cmpd 847, Salbutamol] | ++
CC1(C)O[C@@H]2C[C@H]3[C@@H]4C[C@H](F)C5=CC(=O)C=C[C@]5(C)[C@H]4[C@@H](O)C[C@]3(C)[C@]2(C(=O)CO)O1 [Cmpd 461, Flunisolide] | ++
C=C1/C(=C\C=C2/CCC[C@]3(C)[C@@H]([C@H](C)/C=C/[C@@H](O)C4CC4)CC[C@@H]23)C[C@@H](O)C[C@@H]1O [Cmpd 203, Calcipotriol] | +++
CCc1ccc(CCOc2ccc(CC3SC(=O)NC3=O)cc2)nc1 (stereo not drawn) [Cmpd 785, Pioglitazone HCl] | +++
C[C@H](CCC(=O)O)[C@H]1CC[C@H]2[C@@H]3[C@H](O)C[C@@H]4C[C@H](O)CC[C@]4(C)[C@H]3CC[C@]12C [Cmpd 245, Chenodeoxycholic Acid] | +++
Cc1ccc([C@@H]2O[C@H](CO)[C@@H](O)[C@H](O)[C@H]2O)cc1Cc1ccc(-c2ccc(F)cc2)s1.O [Cmpd 209, Canagliflozin (hemihydrate)] | +++++
CC(C)N1CCN(c2ccc(OCC3COC(Cn4cncn4)(c4ccc(Cl)cc4Cl)O3)cc2)CC1 (stereo not drawn) [Cmpd 928, Terconazole] | ++
CC(=O)OCC(CCn1cnc2cnc(N)nc21)COC(C)=O [Cmpd 447, Famciclovir] | +++
N[C@@H](Cc1cc(I)c(Oc2ccc(O)c(I)c2)c(I)c1)C(=O)O [Cmpd 972, Triiodothyronine] | ++
Cc1c(-c2ccc(O)cc2)n(Cc2ccc(OCCN3CCCCCC3)cc2)c2ccc(O)cc12 [Cmpd 159, Bazedoxifene acetate] | ++++
O=C1OC2(c3ccc(O)cc3Oc3cc(O)ccc32)c2ccccc21 [Cmpd 462, Fluorescein] | ++
NC(=O)c1ccc(I)c([N+](=O)[O-])c1 [Cmpd 531, Iniparib (BSI-201)] | +++++
Nc1nc(=O)c2c([nH]1)NCC(CNc1ccc(C(=O)N[C@@H](CCC(=O)[O-])C(=O)[O-])cc1)N2C=O.[Ca+2] (stereo partly drawn) [Cmpd 468, Folinic Acid (calcium salt)] | +++
